Earlier results on 1 compound are cited in patent publication US5354868A, “Process for the preparation of (+)-hydantocidin and analogs thereof” (American Cyanamid Company, priority 1993, dated 1994).

Series [1] has as its system annual and perennial weeds. Particulars: compared with glyphosphate and bialaphos.
For the next series, the system named is mammals. Particulars: in vivo.

Molecules are shown by their SMILES.

With `O=C1NC(=O)[C@@]2(N1)O[C@H](CO)[C@@H](O)[C@H]2O` [(+)-Hydantocidin, D-ribose-1-spiro-5'-N^1' -β-hydantoin], the herbicidal activity entry in series [1] is “herbicidal activity at levels comparable to commercial standards such as glyphosphate and bialaphos”. The toxicity to mammals result in the series on mammals was “non-toxic to mammals”.
